Measured values: PMC6102311 (Scientific Reports, 2018)

Legend:
[1] = test system: Raji cells; test: Viability of Raji cells in the EBV-EA activation assay; format: cell-based; conditions: concentration 1000 mol ratio to TPA (32 pmol/ml); value in parentheses
Text: (§1) We finally carried out in vitro functional analysis of the purified valerianol against tumor promoter activity, since there were no reports on its physiological functions. As such a screening study for anti-tumor promoters, valerianol and other several sesquiterpenes, β-eudesmol, elemol, α-selinene, and γ-amorphene, were examined for their inhibitory effects on induction of Epstein-Barr virus-early antigen (EBV-EA) activation in Raji cells by 12-O-tetradecanoylphorbol-13-acetate (TPA)[42].
(§2) This assay was carried out by the method described.

[2] = test system: Epstein-Barr virus-early antigen (EBV-EA) activation in Raji cells by TPA; test: Inhibitory effects on induction of EBV-EA activation by TPA in Raji cells; format: cell-based
Text: as §1, §2

[3] = Viability of Raji cells in the EBV-EA activation assay; format: cell-based; conditions: human, Raji cells; concentration 1000 mol ratio to TPA (32 pmol/ml); value in parentheses; read-out: viability percentage of Raji cells
Text: as §1, §2

[4] = test system: Staphylococcus aureus; parameters: method as in PMID 26927047; conditions: extracted from Chinese agarwood; cited from earlier work
[5] = test system: Ralstonia solanacearum; conditions: extracted from Chinese agarwood; cited from earlier work
[6] = concentration 100 mol ratio to TPA (32 pmol/ml)
[7] = concentration 500 mol ratio to TPA (32 pmol/ml)
[8] = concentration 1000 mol ratio to TPA (32 pmol/ml)
[9] = concentration 10 mol ratio to TPA (32 pmol/ml)

Compound	viability percentage of Raji cells [1] [%]	EBV-EA activation, percentage relative to the positive control value (100%) [2, 6] [%]	EBV-EA activation, percentage relative to the positive control value (100%) [2, 7] [%]	EBV-EA activation, percentage relative to the positive control value (100%) [2, 8] [%]	EBV-EA activation, percentage relative to the positive control value (100%) [2, 9] [%]	viability at 32 nmol/ml [3] [%]	antibacterial activity against Staphylococcus aureus (in words) [4]	inhibitory activity on induction of EBV-EA activation by TPA (in words) [2]	antibacterial activity against Ralstonia solanacearum (in words) [5]
C=C(C)[C@@H]1CC[C@@]2(C)CCC=C(C)[C@@H]2C1 [α-selinene]	60	74.4 ± 2.7	54.2 ± 1.5	7.3					
C=C1CC[C@@H](C(C)C)[C@H]2C=C(C)CC[C@@H]12 [γ-amorphene]	60	76.1 ± 2.5	55.6 ± 1.7	8.1	100 ± 0.4				
C[C@@H]1CCC=C2CC[C@@H](C(C)(C)O)C[C@]21C (relative stereo) [valerianol]		70.0 ± 2.5	46.5 ± 1.5	2.1	95.6 ± 0.6	60	exhibited antibacterial activities	strongest inhibitory activity among the examined sesquiterpenes	exhibited antibacterial activities
C=CC1(C)CCC(C(C)(C)O)CC1C(=C)C (stereo not drawn) [elemol]		73.0 ± 2.4	52.6 ± 1.3	5.8	100 ± 0.5	70			
C=C1CCC[C@]2(C)CC[C@@H](C(C)(C)O)C[C@@H]12 [β-eudesmol]		71.1 ± 2.2	50.4 ± 1.6	3.6	97.0 ± 0.5	60			
